These results are taken from patent publication US20090202571A1, “Bioreductively-activated prodrugs” (HOPNIC LABORATORY CO., LTD., priority 2004, published 2009).

The IC50 is the midpoint of a concentration-inhibition curve.

One data set deals with T1, human P450 reductase (Homo sapiens, UniProt P16435).
T1 construct: purchased Gentest or Cypex P244 (Gentest) or Cyp004 (Cypex)
T1 sequence (P16435 1-677): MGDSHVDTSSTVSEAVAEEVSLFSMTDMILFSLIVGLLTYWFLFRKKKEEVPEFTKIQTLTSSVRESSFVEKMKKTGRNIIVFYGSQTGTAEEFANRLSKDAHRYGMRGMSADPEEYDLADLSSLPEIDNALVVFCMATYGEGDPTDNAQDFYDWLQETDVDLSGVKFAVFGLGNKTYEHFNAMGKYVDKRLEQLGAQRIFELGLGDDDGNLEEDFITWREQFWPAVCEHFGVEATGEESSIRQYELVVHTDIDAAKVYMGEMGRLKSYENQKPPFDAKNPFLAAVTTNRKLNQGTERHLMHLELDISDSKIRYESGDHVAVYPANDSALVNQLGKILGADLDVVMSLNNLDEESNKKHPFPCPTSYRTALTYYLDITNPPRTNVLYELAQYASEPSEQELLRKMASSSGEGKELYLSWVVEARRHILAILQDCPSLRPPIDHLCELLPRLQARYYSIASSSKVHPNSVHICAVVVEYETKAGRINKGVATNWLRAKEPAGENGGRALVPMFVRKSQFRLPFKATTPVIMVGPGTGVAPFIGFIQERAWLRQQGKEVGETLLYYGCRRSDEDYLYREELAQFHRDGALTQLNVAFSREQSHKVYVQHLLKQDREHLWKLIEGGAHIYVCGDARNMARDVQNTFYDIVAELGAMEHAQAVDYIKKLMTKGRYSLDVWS
As to the kind of experiment: Drug release by human cytochrome P450 reductase. Type of data set: biochemical. The following applies: NADPH, pH 7.4, 37° C. On the procedure: Cytochrome p450 reductase is widely expressed in human tumours as well as in a range of normal tissues and is one of a number of enzymes that can catalyse bioreduction. […] For experiments under nitrogen the mixture was degassed with nitrogen for 20 minutes prior to compound addition and overgassed with nitrogen during the incubation.

Data set [1] is described as follows: Metabolism in tumour homogenates. The following applies: 5 μmol dm^−3 prodrug, NADPH, pH 7.4, 37° C. Type of data set: in vitro ADME. As to the method:
Useful bioreductive prodrugs can be shown to release the active drug selectively under conditions of low oxygen in the presence of tumour homogenate in this assay. Freshly-excised CaNT tumours (approximately 0.5 to 1 g) were homogenised in 15 ml of ice-cold 50 mmol din^−3 potassium phosphate buffer at pH 7.4.

The next data set concerns A549 cells. As to the kind of experiment: Cellular cytotoxicity (Celltiter 96 Aqueous One Solution, MTS). Type of data set: cell-based. The following applies: 61 h incubation period as printed, MTS absorbance 490 nm. The text has this:
The cytotoxic or cytostatic properties of compounds of formula (1) and corresponding etoposide compounds can be assessed for example, by use, for example, of this assay. The Celltiter 96® Aqueous One Solution Cell Proliferation Assay kit (Promega Corporation, USA) which is a colorimetric method for determining the number of viable cells in proliferation or cytotoxicity assays was used. In this assay the MTS tetrazolium compound (Owen's Reagent) is bioreduced by viable cells into a coloured formazan product which is soluble in tissue culture medium and can be measured by recording absorbance at 490 nm with a 96 well plate reader. A549 cells were seeded in Eagles Minimum Essential Medium supplemented with 10% foetal calf serum and non-essential amino acids at 10^3 cell per well on a 96 well plate and allowed to attach for 24 h. Compounds were dissolved in DMSO and diluted with cell culture medium before addition. […] The MTS reagent was added to each well, left for 4 h, then the absorbance measured at 490 nm with a 96 well plate reader.

For data set [2] the following is noted: 5 μmol dm^−3 prodrug, NADPH, pH 7.4, 37° C.
Protocol: Freshly-excised mouse liver (approximately 1 g) was homogenised in 15 ml of ice-cold 50 mmol dm^−3 potassium phosphate buffer at pH 7.4. The homogenates were centrifuged at 1000 RPM for 10 min and the supernatants stored on ice. The metabolism of 5 µmol dm^−3 prodrug in air was performed with 0.5 ml liver homogenate (˜2 mg of protein by Bradford assay) with 100 µmol dm^−3 NADPH in 50 mmol dm^−3 potassium phosphate buffer at pH 7.4 incubated at 37° C. Samples (60 µl) were taken at regular intervals and added to an equivalent volume of acetonitrile, then mixed and centrifuged at 14, 300 RPM for 2 min prior to product analysis by HPLC.

For “9-[(4,6-O-Ethylidene-β-D-glucopyranosyl)oxy]-5,8,8a,9-tetrahydro-5-(4-(1-(5-nitrothien-2-yl)ethoxy)-3,5-dimethoxyphenyl)furo[3′,4′:6,7]naphtha[2,3-d]-1,3-dioxol-6(5aH)-one [Example 1]”, the drug production result on human P450 reductase (under air) is on record as “no drug production could be detected”. The “rate of etoposide production” value on human P450 reductase (under anoxia (nitrogen)) turned out to be 0.83 nmol min^−1 mg protein^−1; in data set [1] (under nitrogen), 17 μmol/min/mg protein. Besides, the etoposide production result in data set [1] (under air) is “no etoposide production was detected”. This compound also showed an IC50 in the data set with A549 cells of more than 20 µM.

Consider `COc1cc([C@@H]2c3cc4c(cc3[C@@H](O[C@@H]3O[C@@H]5CO[C@@H](C)O[C@H]5[C@H](O)[C@H]3O)[C@H]3COC(=O)[C@H]23)OCO4)cc(OC)c1O` [etoposide, reference compound], for which, in the data set with A549 cells (Homo sapiens), the IC50 was 7.5 µM.

As to “9-[(4,6-O-Ethylidene-β-D-glucopyranosyl)oxy]-5,8,8a,9-tetrahydro-5-(4-(5-nitrothien-2-yl)methoxy)-3,5-dimethoxyphenyl)furo[3′,4′:6,7]naphtha[2,3-d]-1,3-dioxol-6(5aH)-one [Example 2]”, the “Rate of drug release (pmol/min/mg protein) Anoxic” value in data set [2] (Anoxic (nitrogen)) turned out to be 388 pmol/min/mg protein. Moreover, the “Rate of drug release (pmol/min/mg protein) Oxic” value in data set [2] (Oxic (air)) came out at 7 pmol/min/mg protein.
